Source: patent US20110105500A1, “PYRAZINE SUBSTITUTED PURINES” (S*BIO Pte Ltd., priority 2008, published 2011)

How the values were obtained:
[1] = tested on: human breast cancer cell lines; conditions: cited from earlier work
Full-length mTOR kinase = target: T1, Full-length mTOR kinase (Homo sapiens, UniProt P42345); test: mTOR Assay (phosphorylation of 4eBP1, [γ33P]-ATP filter plate); type: biochemical; conditions: 10 μM ATP, 1 hour at room temperature
T1 construct: Full-length mTOR kinase and His-tagged 4eBP1 were produced in-house; made in house
Procedure: Full-length mTOR kinase and His-tagged 4eBP1 were produced in-house. [γ^33P]-ATP was purchased from Amersham (GE Healthcare). All chemicals, unless otherwise stated, were from Sigma-Aldrich.
Phosphorylation assays were initially performed in a final volume of 20 μL in 384-well polypropylene plate (Greiner). Compounds were typically tested over the range from 100 μM to 0.006 μM, in 8 step dilutions, in duplicate. 10 μL/well of 2× Enzyme-Substrate solution (1.5 μg/mL mTOR, 40 μg/mL 4eBP1 in 1× assay buffer: 10 mM Hepes pH 7.5, 50 mM NaCl and 10 mM MnCl2) were first added to the sample plate containing 1 μL/well of test compound in neat DMSO. The reaction was initiated by adding 10 μL/well of 20 μM ATP solution (final assay concentration 10 μM ATP and 0.4 μCi/well of [γ^33P]-ATP). After 1 hour incubation at room temperature, the reaction was terminated with 40 μL/well of 20 mM EDTA/1 mM ATP solution.
50 μL/well of the stopped reaction mix was then transferred to 384-well MultiScreenHTS-PH filter plate (Millipore) pre-added with 50 μL/well of 1% phosphoric acid. The plate was washed 4 times with 120 μL/well of 0.5% phosphoric acid via vacuum filtration. Finally, 10 μL/well of Optiphase™ SuperMix liquid scintillation cocktail (Perkin Elmer) was added. After minimum 1 hour of incubation, counting was performed in a Wallac MicroBeta TriLux scintillation counter using coincidence counting mode with crosstalk correction. IC50 is defined as the concentration of compound required for 50% inhibition of kinase enzyme activity.

[2] = target: T2, Recombinant PI3K p110α/p85 (Homo sapiens, UniProt P42336); test: PI3K Assay ([γ33P]ATP, PtdIns/PtdSer coated plates); type: biochemical; conditions: p110α/p85, 2 μM ATP, 1 hour at RT; read-out: IC50 (PI3Kα)
T2 construct: made in house
T2 sequence (P42336 whole entry): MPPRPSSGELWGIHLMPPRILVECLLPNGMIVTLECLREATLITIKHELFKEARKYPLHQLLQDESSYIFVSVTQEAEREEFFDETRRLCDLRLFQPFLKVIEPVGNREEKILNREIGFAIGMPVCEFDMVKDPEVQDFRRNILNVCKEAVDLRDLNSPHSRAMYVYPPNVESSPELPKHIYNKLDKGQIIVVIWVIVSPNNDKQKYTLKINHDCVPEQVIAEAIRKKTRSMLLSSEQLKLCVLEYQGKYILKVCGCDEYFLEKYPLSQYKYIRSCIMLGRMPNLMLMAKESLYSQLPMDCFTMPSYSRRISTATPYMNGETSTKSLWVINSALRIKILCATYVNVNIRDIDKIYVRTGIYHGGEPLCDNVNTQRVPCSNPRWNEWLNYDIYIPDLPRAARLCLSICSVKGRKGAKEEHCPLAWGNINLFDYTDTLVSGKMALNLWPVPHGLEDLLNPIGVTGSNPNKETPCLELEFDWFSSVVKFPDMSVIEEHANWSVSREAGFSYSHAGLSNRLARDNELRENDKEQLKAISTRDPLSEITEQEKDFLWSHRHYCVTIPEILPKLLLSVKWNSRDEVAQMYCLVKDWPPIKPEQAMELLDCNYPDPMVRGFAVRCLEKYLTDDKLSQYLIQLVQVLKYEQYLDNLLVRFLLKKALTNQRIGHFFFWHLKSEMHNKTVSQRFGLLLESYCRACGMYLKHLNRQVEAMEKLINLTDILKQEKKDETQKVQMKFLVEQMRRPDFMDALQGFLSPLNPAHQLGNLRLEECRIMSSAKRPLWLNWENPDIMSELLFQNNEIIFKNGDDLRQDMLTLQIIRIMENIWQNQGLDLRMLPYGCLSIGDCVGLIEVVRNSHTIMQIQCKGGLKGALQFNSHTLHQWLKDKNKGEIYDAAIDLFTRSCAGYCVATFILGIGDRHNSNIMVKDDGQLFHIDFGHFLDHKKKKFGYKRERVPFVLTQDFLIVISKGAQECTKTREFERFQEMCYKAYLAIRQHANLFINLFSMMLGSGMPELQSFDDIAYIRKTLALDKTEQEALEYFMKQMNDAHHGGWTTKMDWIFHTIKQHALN
T2 sequence (P27986 whole entry partner): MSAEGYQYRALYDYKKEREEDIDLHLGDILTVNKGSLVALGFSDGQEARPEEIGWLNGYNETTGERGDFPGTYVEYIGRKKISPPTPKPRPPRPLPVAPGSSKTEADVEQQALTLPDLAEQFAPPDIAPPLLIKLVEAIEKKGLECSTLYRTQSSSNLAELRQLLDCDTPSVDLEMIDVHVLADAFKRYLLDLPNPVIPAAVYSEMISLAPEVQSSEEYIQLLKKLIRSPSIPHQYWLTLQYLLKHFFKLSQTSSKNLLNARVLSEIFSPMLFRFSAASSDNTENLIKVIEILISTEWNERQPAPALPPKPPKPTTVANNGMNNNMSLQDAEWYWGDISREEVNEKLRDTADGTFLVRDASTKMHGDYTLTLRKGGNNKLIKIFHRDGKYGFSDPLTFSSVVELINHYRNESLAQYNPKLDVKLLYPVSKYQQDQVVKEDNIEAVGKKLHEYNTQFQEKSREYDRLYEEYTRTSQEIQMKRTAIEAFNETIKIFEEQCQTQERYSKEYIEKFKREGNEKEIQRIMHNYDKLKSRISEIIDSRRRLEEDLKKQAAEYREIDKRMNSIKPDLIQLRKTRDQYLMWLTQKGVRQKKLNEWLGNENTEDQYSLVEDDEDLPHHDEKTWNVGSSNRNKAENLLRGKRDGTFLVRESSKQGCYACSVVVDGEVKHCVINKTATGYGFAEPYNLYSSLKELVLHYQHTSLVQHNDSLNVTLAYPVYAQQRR
Procedure: Recombinant PI3K p110α/p85 was prepared in-house. Phosphatidylinositol (PtdIns), phosphotidylserine (PtdSer) and all other unspecified chemicals were purchased from Sigma-Aldrich. [γ33P]ATP and Optiphase scintillant were obtained from Perkin Elmer.
Assays were performed in a final assay volume of 25 μL in 384-well Maxisorp plates (Nunc). […] Maxisorp plates were coated with 20 μL/well of a 1:1 mixture of PtdIns and PtdSer [0.1 mg/mL each dissolved in chloroform:ethanol (3:7)] and left overnight in a fume hood at room temperature to dry.
The enzyme reaction was created by pipetting 5 μL/well of compound (in 2.5% DMSO), 10 μL/well of enzyme (0.5 μg/mL p110α+1 μg/mL p85), and 10 μL/well of 5 μM ATP with 5 μCi/mL [γ^33P]ATP in assay buffer (final concentrations: 0.2 μg/mL p110α, 2 μM ATP, 0.05 μCi/well [γ^33P]ATP in 1× assay buffer: 100 mM Tris-HCl pH 7.0, 200 mM NaCl, 8 mM MgCl2). The reaction was incubated for 1 hour at RT and terminated with 30 μL/well of 50 mM EDTA solution. The plate was then washed twice with TBS, dried, and added with 30 μL/well of scintillant before it was counted in a MicroBeta Trilux.

| IC50 (Full-length mTOR kinase) | IC50 [2] | SMILES | IC50 (sensitive lines) ([1]; six of eight human breast cancer cell lines) | IC50 ([1]; two resistant lines of eight human breast cancer cell lines) |
| --- | --- | --- | --- | --- |
| < 1000 nM | < 1000 nM | Nc1cnc(-c2nc(N3CCOCC3)nc3c2ncn3C2CCCC2)cn1 [Compound 5] |  |  |
| < 1000 nM | < 1000 nM | Nc1cnc(-c2nc(N3CCOCC3)nc3c2ncn3CC2CC2)cn1 [Compound 8] |  |  |
| < 1000 nM | < 1000 nM | CC(C1CC1)n1cnc2c(-c3cnc(N)cn3)nc(N3CCOCC3)nc21 (stereo not shown) [Compound 9] |  |  |
| < 1000 nM | < 1000 nM | Nc1cnc(-c2nc(N3CCOCC3)nc3c2ncn3C2CCOC2)cn1 (stereo not shown) [Compound 12] |  |  |
| < 1000 nM | < 1000 nM | Nc1cnc(-c2nc(N3CCOCC3)nc3c2ncn3C2CCc3ccccc3C2)cn1 (stereo not shown) [Compound 13] |  |  |
| < 1000 nM | < 1000 nM | CC(C)(C)Cn1cnc2c(-c3cnc(N)cn3)nc(N3CCOCC3)nc21 [Compound 22] |  |  |
| < 1000 nM | < 1000 nM | Nc1cnc(-c2nc(N3CCOCC3)nc3c2ncn3C2CCc3ccccc32)cn1 (stereo not shown) [Compound 23] |  |  |
| < 1000 nM | < 1000 nM | Nc1cnc(-c2nc(N3CCOCC3)nc3c2ncn3C2CCC2)cn1 [Compound 24] |  |  |
| < 1000 nM | < 1000 nM | CC1CCCCC1n1cnc2c(-c3cnc(N)cn3)nc(N3CCOCC3)nc21 (stereo not shown) [Compound 25] |  |  |

Continued, molecule first:

| SMILES | IC50 (Full-length mTOR kinase) | IC50 [2] | IC50 (sensitive lines) ([1]; six of eight human breast cancer cell lines) | IC50 ([1]; two resistant lines of eight human breast cancer cell lines) |
| --- | --- | --- | --- | --- |
| CO[C@H]1C[C@@H]2CC[C@@H](C)[C@@](O)(O2)C(=O)C(=O)N2CCCC[C@H]2C(=O)O[C@H]([C@H](C)C[C@@H]2CC[C@@H](OC(=O)C(C)(CO)CO)[C@H](OC)C2)CC(=O)[C@H](C)/C=C(\C)[C@@H](O)[C@@H](OC)C(=O)[C@H](C)C[C@H](C)/C=C/C=C/C=C/1C [CCI-779] |  |  | low nanomolar range | > 1000 nM |
| CCC(C)n1cnc2c(-c3cnc(N)cn3)nc(N3CCOCC3)nc21 (stereo not shown) [Compound 1, 5-(9-sec-Butyl-2-morpholin-4-yl-9H-purin-6-yl)-pyrazin-2-ylamine] | < 1000 nM | < 1000 nM |  |  |
| CC(C)C(C)n1cnc2c(-c3cnc(N)cn3)nc(N3CCOCC3)nc21 (stereo not shown) [Compound 2] | < 1000 nM | < 1000 nM |  |  |
| CCC(C#N)n1cnc2c(-c3cnc(N)cn3)nc(N3CCOCC3)nc21 (stereo not shown) [Compound 3] | < 1000 nM | < 1000 nM |  |  |
| CCC(CC)n1cnc2c(-c3cnc(N)cn3)nc(N3CCOCC3)nc21 [Compound 4] | < 1000 nM | < 1000 nM |  |  |
| Nc1cnc(-c2nc(N3CCOCC3)nc3c2ncn3Cc2ccccc2)cn1 [Compound 6] | 1000 to 5000 nM | < 1000 nM |  |  |
| Nc1cnc(-c2nc(N3CCOCC3)nc3c2ncn3Cc2c(F)cccc2F)cn1 [Compound 7, 5-[9-(2,6-Difluoro-benzyl)-2-morpholin-4-yl-9H-purin-6-yl]-pyrazin-2-ylamine] | < 1000 nM | < 1000 nM |  |  |
| COCC(C)n1cnc2c(-c3cnc(N)cn3)nc(N3CCOCC3)nc21 (stereo not shown) [Compound 10] | < 1000 nM | < 1000 nM |  |  |
| Cc1cccc(-n2cnc3c(-c4cnc(N)cn4)nc(N4CCOCC4)nc32)c1 [Compound 11, 5-(2-Morpholin-4-yl-9-m-tolyl-9H-purin-6-yl)-pyrazin-2-ylamine] | < 1000 nM | < 1000 nM |  |  |
| Nc1cnc(-c2nc(N3CCOCC3)nc3c2ncn3-c2ccc3c(c2)OCO3)cn1 [Compound 14] | < 1000 nM | < 1000 nM |  |  |
| CCC(C)n1c(Br)nc2c(-c3cnc(N)cn3)nc(N3CCOCC3)nc21 (stereo not shown) [Compound 15, 5-(8-Bromo-9-sec-butyl-2-morpholin-4-yl-9H-purin-6-yl)-pyrazin-2-ylamine] | < 1000 nM | < 1000 nM |  |  |
| Nc1cnc(-c2nc(N3CCOCC3)nc3c2ncn3C2CCN(c3ccccc3)CC2)cn1 [Compound 16] | < 1000 nM | < 1000 nM |  |  |
| Nc1cnc(-c2nc(N3CCOCC3)nc3[nH]cnc23)cn1 [Compound 17] | < 1000 nM | < 1000 nM |  |  |
| Nc1cnc(-c2nc(N3CCOCC3)nc3c2ncn3C2CCN(c3ccccc3)C2)cn1 (stereo not shown) [Compound 18] | < 1000 nM | < 1000 nM |  |  |
| Nc1cnc(-c2nc(N3CCOCC3)nc3c2ncn3-c2ccccc2)cn1 [Compound 19] | < 1000 nM | < 1000 nM |  |  |
| Nc1cnc(-c2nc(N3CCOCC3)nc3c2nc(Br)n3C2CCOC2)cn1 (stereo not shown) [Compound 20] | < 1000 nM | < 1000 nM |  |  |
| Nc1cnc(-c2nc(N3CCOCC3)nc3c2ncn3C2Cc3ccccc3C2)cn1 [Compound 21] | < 1000 nM | < 1000 nM |  |  |
